This passage reports IC50 results from patent US8765727B2, “Macrocyclic compounds and their use as kinase inhibitors” (Incyte Corporation, priority 2009, dated 2014).

What all share (format): biochemical
The target in experiment [1] is Recombinant Human Anaplastic Lymphoma Kinase (Homo sapiens (Human), UniProt Q9UM73). Description: ALK HTRF kinase assay. Conditions: 90 μM ATP, 0.25 nM enzyme, 2 hours at 25° C. On the procedure: Materials: Recombinant Human Anaplastic Lymphoma Kinase was purchased from Invitrogen, Carlsbad, Calif. Peptide substrate (Biotin-[…]-amide) was custom synthesized at EZBiolab, Westfield, Ind. Streptavidin conjugated SureLight-Allophycocyania and LANCE Eu-W1024 labeled anti-phosphotyrosine antibody were from Perkin-Elmer, Boston, Mass. Microplates were from Corning Inc., Acton, Mass. All other reagents were from Sigma, St. Louis, Mo.
Chain of Recombinant Human Anaplastic Lymphoma Kinase (Q9UM73 19-1620): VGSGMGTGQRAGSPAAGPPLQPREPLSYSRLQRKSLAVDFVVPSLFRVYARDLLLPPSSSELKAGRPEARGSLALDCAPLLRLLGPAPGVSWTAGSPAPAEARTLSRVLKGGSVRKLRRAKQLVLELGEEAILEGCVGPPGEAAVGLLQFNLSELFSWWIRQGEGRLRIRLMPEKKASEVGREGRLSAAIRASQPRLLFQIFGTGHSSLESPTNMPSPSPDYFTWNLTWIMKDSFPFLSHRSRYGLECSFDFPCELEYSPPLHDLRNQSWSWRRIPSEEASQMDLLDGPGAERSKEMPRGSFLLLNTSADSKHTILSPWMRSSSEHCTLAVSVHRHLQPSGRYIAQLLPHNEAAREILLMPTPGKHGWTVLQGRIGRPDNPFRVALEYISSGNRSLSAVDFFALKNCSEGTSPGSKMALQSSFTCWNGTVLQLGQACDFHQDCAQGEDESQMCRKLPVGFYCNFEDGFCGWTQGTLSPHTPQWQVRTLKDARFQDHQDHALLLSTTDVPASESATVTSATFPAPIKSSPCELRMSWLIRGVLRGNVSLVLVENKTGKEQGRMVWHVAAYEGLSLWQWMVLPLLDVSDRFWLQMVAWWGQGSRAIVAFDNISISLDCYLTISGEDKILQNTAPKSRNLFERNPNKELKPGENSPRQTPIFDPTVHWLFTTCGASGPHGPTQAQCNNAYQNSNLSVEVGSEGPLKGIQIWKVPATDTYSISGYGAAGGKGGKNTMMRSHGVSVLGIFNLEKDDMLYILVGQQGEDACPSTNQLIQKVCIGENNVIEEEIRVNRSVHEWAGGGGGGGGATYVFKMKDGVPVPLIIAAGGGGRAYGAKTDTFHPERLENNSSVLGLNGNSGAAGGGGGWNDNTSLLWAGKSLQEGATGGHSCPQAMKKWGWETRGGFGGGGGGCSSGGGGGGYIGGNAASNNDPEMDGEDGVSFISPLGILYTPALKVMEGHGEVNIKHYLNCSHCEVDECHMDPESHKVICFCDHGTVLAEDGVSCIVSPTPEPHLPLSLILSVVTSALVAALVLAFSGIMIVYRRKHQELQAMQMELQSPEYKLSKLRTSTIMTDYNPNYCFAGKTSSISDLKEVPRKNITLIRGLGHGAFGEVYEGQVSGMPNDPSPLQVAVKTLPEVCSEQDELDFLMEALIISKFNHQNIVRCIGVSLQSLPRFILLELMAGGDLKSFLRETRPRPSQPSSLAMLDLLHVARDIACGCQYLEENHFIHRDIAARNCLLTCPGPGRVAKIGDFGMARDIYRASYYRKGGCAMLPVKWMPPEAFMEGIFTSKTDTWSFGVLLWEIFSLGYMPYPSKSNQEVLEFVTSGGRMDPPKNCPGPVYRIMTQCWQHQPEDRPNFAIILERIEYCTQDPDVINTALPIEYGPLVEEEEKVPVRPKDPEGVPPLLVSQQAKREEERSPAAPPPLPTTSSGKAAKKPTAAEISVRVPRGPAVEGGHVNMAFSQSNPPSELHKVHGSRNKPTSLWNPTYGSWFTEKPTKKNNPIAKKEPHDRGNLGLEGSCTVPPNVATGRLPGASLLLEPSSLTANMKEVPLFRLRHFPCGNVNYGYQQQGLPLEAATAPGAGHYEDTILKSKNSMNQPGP
HTRF kinase assay: 40 μL reactions were run in black 384 well polystyrene plates in assay buffer (50 mM Tris, pH 7.8, 100 mM NaCI, 0.1 mg/mL BSA, 5 mM DTT), containing 0.5 μM Biotinylated peptide substrate, 10 mM MgCl2, 90 μM ATP, and 0.25 nM enzyme for 2 hours at 25° C. Reactions were stopped by addition of 20 μL assay buffer supplemented with an additional 50 mM NaCl, 0.4 mg/mL BSA, 45 mM EDTA, 4.5 nM LANCE Eu-W1024 labeled anti-phosphotyrosine antibody and 200 nM streptavidin conjugated SureLight-allophycocyanin. Plates were read in Fusion α-FP instrument (Perkin-Elmer). The concentrations needed to reach 50% inhibition, the IC50 value, were determined by fitting the assay signal to the following equation using Graphpad Prizm. Signal=Bottom+(Top−Bottom)/(1+10^((Log(IC50)−Log [I])*Hill Slope) Bottom and Top refer to the post and pre-transition baselines, respectively.
On the technique in general: Time-resolved FRET reads energy transfer from a long-lived donor to a nearby acceptor.

Experiment [2] deals with human JAK3 (a.a. 781-1124) catalytic domain (Homo sapiens (Human), UniProt P52333). Description: In vitro JAK kinase assay (HTRF), JAK3. Conditions: 3 μM ATP, 500 nM peptide, room temperature 1 hr. The protocol:
(§1) One or more compounds herein were tested for inhibitory activity of JAK targets according to the following in vitro assay described in Park et al., Analytical Biochemistry 1999, 269, 94-104. The catalytic domains of human JAK1 (a.a. 837-1142), JAK2 (a.a. 828-1132) and JAK3 (a.a. 781-1124) with an N-terminal His tag were expressed using baculovirus in insect cells and purified. The catalytic activity of JAK1, JAK2 or JAK3 was assayed by measuring the phosphorylation of a biotinylated peptide. The phosphorylated peptide was detected by homogenous time resolved fluorescence (HTRF). […] The ATP concentration in the reactions was 90 μM for JAK1, 30 μM for JAK2 and 3 μM for JAK3. Reactions were carried out at room temperature for 1 hr and then stopped with 20 μL 45 mM EDTA, 300 nM SA-APC, 6 nM Eu-Py20 in assay buffer (Perkin Elmer, Boston, Mass.). Binding to the Europium labeled antibody took place for 40 minutes and HTRF signal was measured on a Fusion plate reader (Perkin Elmer, Boston, Mass.).

Experiment [3] has as its target human JAK2 (a.a. 828-1132) catalytic domain (Homo sapiens (Human), UniProt O60674). In words: In vitro JAK kinase assay (HTRF), JAK2. On the procedure: One or more compounds herein were tested for inhibitory activity of JAK targets according to the following in vitro assay described in Park et al., Analytical Biochemistry 1999, 269, 94-104. The catalytic domains of human JAK1 (a.a. 837-1142), JAK2 (a.a. 828-1132) and JAK3 (a.a. 781-1124) with an N-terminal His tag were expressed using baculovirus in insect cells and purified. The catalytic activity of JAK1, JAK2 or JAK3 was assayed by measuring the phosphorylation of a biotinylated peptide. The phosphorylated peptide was detected by homogenous time resolved fluorescence (HTRF). […] Binding to the Europium labeled antibody took place for 40 minutes and HTRF signal was measured on a Fusion plate reader (Perkin Elmer, Boston, Mass.).

Experiment [4] has as its target human JAK1 (a.a. 837-1142) catalytic domain (Homo sapiens, UniProt P23458). Description: In vitro JAK kinase assay (HTRF), JAK1. As to conditions: 90 μM ATP, 500 nM peptide, room temperature 1 hr. On the procedure: as §1
A further experiment concerns the target TYK2 (Homo sapiens (Human), UniProt P29597). Description: TYK2 assay (as described by Thompson et al.). An excerpt: The invention will be described in greater detail by way of specific examples. The following examples are offered for illustrative purposes, and are not intended to limit the invention in any manner. Those of skill in the art will readily recognize a variety of non-critical parameters which can be changed or modified to yield essentially the same results. In some instances where the compounds of the examples were isolated by preparative HPLC in the presence of trifluoroacetic acid (TFA) or other acid, the compound may have been obtained as the corresponding salt. […] Certain compounds described in Tables 1 and in the Example section were tested for inhibitory activity of JAK/ALK targets according to assays such as those described herein or those known in the art [e.g., ALK assays described in WO 04/079326; and TYK2 assays described by James E. Thompson et. al, “Photochemical preparation of a pyridone containing tetracycle: A JAK protein kinase inhibitor,” Bioorganic & Medicinal Chemistry Letters, Volume 12, Issue 8, 22 Apr. 2002, Pages 1219-1223]. […] Some exemplary data of the compounds of the invention are shown in Table 1 in the experimental section.

Setting [5] is: 30 μM ATP, 500 nM peptide, room temperature 1 hr.

Structures are written as SMILES. pIC50: −log10 of the molar value. Where a name gives a salt, the structure may show the parent alone. Read-outs that look alike come from different tables or passages of the source.

Chain of human JAK3 (a.a. 781-1124) catalytic domain (P52333 781-1124): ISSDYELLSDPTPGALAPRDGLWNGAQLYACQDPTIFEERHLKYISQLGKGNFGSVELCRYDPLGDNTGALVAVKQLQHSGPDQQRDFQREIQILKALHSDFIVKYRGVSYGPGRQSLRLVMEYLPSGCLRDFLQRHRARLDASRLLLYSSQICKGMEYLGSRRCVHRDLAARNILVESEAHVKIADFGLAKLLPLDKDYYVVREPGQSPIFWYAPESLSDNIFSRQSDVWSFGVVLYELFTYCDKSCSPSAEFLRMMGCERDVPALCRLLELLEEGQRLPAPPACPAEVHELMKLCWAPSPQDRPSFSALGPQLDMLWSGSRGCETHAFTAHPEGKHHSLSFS
Chain of human JAK2 (a.a. 828-1132) catalytic domain (O60674 828-1132): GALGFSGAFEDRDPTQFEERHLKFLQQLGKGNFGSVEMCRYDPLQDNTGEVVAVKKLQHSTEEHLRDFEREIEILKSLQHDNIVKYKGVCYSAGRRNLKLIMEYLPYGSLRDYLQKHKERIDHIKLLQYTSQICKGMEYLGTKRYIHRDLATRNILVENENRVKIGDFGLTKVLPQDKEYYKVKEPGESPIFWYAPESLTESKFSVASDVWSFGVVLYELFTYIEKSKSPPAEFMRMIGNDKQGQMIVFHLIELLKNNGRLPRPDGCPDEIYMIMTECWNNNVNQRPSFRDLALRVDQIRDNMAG
Chain of TYK2 (P29597 whole entry, species assumed): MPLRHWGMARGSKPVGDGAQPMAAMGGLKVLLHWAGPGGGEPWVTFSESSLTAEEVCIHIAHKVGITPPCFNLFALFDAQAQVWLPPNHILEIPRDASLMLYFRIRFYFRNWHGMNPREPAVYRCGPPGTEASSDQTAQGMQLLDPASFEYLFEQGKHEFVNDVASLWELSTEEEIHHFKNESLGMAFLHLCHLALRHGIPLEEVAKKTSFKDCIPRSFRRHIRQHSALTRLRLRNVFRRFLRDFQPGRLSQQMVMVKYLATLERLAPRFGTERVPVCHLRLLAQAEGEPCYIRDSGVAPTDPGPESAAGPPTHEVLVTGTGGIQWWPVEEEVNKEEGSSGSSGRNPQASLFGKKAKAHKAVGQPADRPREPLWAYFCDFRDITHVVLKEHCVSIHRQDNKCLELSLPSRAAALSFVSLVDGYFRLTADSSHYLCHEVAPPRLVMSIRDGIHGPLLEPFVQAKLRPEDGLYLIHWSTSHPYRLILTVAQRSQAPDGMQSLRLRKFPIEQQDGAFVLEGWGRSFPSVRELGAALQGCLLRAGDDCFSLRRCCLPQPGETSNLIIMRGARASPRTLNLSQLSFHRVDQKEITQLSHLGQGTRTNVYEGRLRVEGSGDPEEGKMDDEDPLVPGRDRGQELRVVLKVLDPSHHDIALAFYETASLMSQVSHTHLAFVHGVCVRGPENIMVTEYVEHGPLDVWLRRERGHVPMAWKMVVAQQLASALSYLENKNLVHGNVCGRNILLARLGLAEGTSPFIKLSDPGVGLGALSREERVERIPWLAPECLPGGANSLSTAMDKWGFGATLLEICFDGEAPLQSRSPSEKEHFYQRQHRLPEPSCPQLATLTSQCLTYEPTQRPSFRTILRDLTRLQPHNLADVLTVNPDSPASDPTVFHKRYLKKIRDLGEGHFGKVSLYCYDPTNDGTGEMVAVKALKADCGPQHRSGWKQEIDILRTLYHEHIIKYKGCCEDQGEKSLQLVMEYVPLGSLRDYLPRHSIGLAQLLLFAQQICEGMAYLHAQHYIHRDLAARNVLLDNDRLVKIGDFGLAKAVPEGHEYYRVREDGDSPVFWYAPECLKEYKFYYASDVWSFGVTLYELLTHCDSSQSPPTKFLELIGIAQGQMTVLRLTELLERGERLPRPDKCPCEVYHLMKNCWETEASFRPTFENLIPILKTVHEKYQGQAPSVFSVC

Turning to `Nc1ccc2cc1CCc1cncc(c1)Nc1ncc(Cl)c(n1)NC2` [Example 17, 6-Chloro-2,4,8,19,23-pentaazatetracyclo[15.3.1.1(3,7).1(10,14)]tricosa-1(21),3(23),4,6,10(22),11,13,17,19-nonaen-13-amine], the pIC50 in experiment [1] was < 6.00; in experiment [2], 6.94; in experiment [3] (setting [5]), 6.35; in experiment [4] it was 6.99; at TYK2, 6.41.
Take `Clc1cnc2nc1NCc1cccc(c1)OCc1cccc(c1)N2` [Example 1, 6-Chloro-15-oxa-2,4,8,23-tetraazatetracyclo[15.3.1.1(3,7).1(10,14)]tricosa-1(21),3(23),4,6,10(22),11,13,17,19-nonaene trifluoroacetate]: the pIC50 in experiment [1] is < 6.00; in experiment [2], 7.77; in experiment [3], 7.31; in experiment [4], 7.29; against TYK2, 6.40.
Consider `Clc1cnc2nc1NCc1cccc(c1)OCCc1cccc(c1)N2` [Example 2, 6-Chloro-15-oxa-2,4,8,24-tetraazatetracyclo[16.3.1.1(3,7).1(10,14)]tetracosa-1(22),3(24),4,6,10(23),11,13,18,20-nonaene trifluoroacetate], for which the pIC50 in experiment [1] is 5.82; in experiment [2], 8.04; in experiment [3] (setting [5]), 8.00; in experiment [4], 7.89; against TYK2, 7.46.
For `Clc1cnc2nc1NCc1cccc(c1)OCCCc1cccc(c1)N2` [Example 5, 6-Chloro-15-oxa-2,4,8,25-tetraazatetracyclo[17.3.1.1(3,7).1(10,14)]pentacosa-1(23),3(25),4,6,10(24),11,13,19,21-nonaene trifluoroacetate], the pIC50 in experiment [1] was 6.15; in experiment [2], 8.62; in experiment [3] it was 8.72; in experiment [4], 8.38; against TYK2 it was 7.60.
Consider `Clc1cnc2nc1NCCCc1cccc(c1)OCCc1cccc(c1)N2` [Example 13, 21-Chloro-10-oxa-2,19,23,24-tetraazatetracyclo[18.3.1.1(3,7).1(11,15)]hexacosa-1(24),3(26),4,6,11(25),12,14,20,22-nonaene], for which the pIC50 in experiment [1] was < 5.00; in experiment [2], 7.21; in experiment [3] (setting [5]), 7.60; in experiment [4], 7.49; against TYK2 it was 6.97.

A word on the pIC50: it is −log10 of the IC50, conventionally taken in molar units.
